What was measured:
[1] = molecular target: T1, human mAChR M1 (Homo sapiens, UniProt P11229); experiment: mAChR M1 cell-based functional assay (calcium mobilization), PAM mode: increase in the EC20 acetylcholine response
T1 sequence (P11229 1-460): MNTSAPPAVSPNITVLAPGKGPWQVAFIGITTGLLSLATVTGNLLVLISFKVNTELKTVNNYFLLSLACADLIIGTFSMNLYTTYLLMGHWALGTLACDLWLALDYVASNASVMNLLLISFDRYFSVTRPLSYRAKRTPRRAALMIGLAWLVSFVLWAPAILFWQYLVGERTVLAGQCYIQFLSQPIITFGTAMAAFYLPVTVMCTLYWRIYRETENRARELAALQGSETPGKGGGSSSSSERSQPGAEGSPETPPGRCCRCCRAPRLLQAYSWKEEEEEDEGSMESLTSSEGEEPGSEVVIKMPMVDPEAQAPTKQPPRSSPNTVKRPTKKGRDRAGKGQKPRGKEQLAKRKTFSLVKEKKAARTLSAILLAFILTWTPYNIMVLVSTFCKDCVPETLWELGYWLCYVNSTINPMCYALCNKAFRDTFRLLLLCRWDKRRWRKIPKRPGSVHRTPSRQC
Excerpt: (§1) Chinese hamster ovary (CHO-K1) cells stably expressing rat (r)M1 were purchased from the American Type Culture Collection and cultured according to their indicated protocol. CHO cells stably expressing human (h)M2, hM3, and hM5 were described previously (Levey, et al., 1991); hM1 and hM4 cDNAs were purchased from Missouri S&T cDNA Resource; rM4 cDNA was provided by T. I. Bonner (National Institutes of Health, Bethesda, MD). rM2 and rM3 were cloned from a rat brain cDNA library and sequence verified. hM1, rM2, rM3, hM4, and rM4 cDNAs were used to stably transfect CHO-K1 cells purchased from the American Type Culture Collection using Lipofectamine2000. To make stable rM2, hM2, rM3, hM4, and rM4 cell lines for use in calcium mobilization assays, these cells also were stably transfected with a chimeric G-protein (Gqi5) (provided by B. R. Conklin, University of California, San Francisco) using Lipofectamine 2000. rM1, hM1, rM3, hM3, rM5, and hM5 cells were grown in Ham's F-12 medium containing 10% heat-inactivated fetal bovine serum (FBS), 20 mM HEPES, and 50 μg/mL G418 sulfate. rM2-Gqi5, hM2-Gqi5, and hM4-Gqi5 cells were grown in the same medium also containing 500 μg/mL Hygromycin B. Stable rM4-Gqi5 cells were grown in DMEM containing 10% heat-inactivated FBS, 20 mM HEPES, 400 μg/mL G418 sulfate, and 500 μg/mL Hygromycin B.
(§2) For high throughput measurement of agonist-evoked increases in intracellular calcium, CHO-K1 cells stably expressing muscarinic receptors were plated in growth medium lacking G418 and hygromycin at 15,000 cells/20 μL/well in Greiner 384-well black-walled, tissue culture (TC)-treated, clear-bottom plates (VWR). Cells were incubated overnight at 37° C. and 5% C02. The next day, cells were washed using an ELX 405 (BioTek) with four washes (80 μL) of assay buffer then aspirated to 20 μL. Next, 20 μL of 16 μM Fluo-4/acetoxymethyl ester (Invitrogen, Carlsbad, CA) prepared as a 2.3 mM stock in DMSO and mixed in a 1:1 ratio with 10% (w/v) Pluronic F-127 and diluted in assay buffer was added to the wells and the cell plates were incubated for 50 min at 37° C. and 5% C02. Dye was removed by washing with the ELX 405 (four 80 μL washes of assay buffer) then aspirated to 20 μL. Compound master plates were formatted in an 11 point CRC format (1:3 dilutions) in 100% DMSO with a starting concentration of 10 mM using the BRAVO liquid handler (Agilent). Test compound CRCs were then transferred to daughter plates (240 nL) using the Echo acoustic plate reformatter (Labcyte, Sunnyvale, CA) and then diluted into assay buffer (40 μL) to a 2× stock using a Thermo Fisher Combi (Thermo Fisher Scientific, Waltham, MA).
Calcium flux was measured using the Functional Drug Screening System (FDSS) 6000 (Hamamatsu Corporation, Tokyo, Japan) as an increase in the fluorescent static ratio. Compounds were applied to cells (20 μL, 2×) using the automated system of the FDSS 6000 at 4 s into the 300 s protocol and the data were collected at 1 Hz. At 144 s into the 300 s protocol, 10 μL of an EC20 concentration of the muscarinic receptor agonist acetylcholine was added (5×), followed by the addition of 12 μL of an EC80 concentration of acetylcholine at the 230 s time point (5×). Agonist activity was analyzed as a concentration-dependent increase in calcium mobilization upon compound addition. Emax values for agonist activity are expressed relative to the maximum for acetylcholine. Positive allosteric modulator activity was analyzed as a concentration-dependent increase in the EC20 acetylcholine response. Antagonist activity was analyzed as a concentration-dependent decrease in the EC80 acetylcholine response. Concentration-response curves were generated using a four-parameter logistical equation in XLfit curve fitting software (IDBS, Bridgewater, NJ) for Excel (Microsoft, Redmond, WA) or Prism (GraphPad Software, Inc., San Diego, CA). […]

[2] = molecular target: T1, human mAChR M1; experiment: mAChR M1 cell-based functional assay (calcium mobilization), agonist mode: compound alone, Emax relative to acetylcholine maximum; details: for EC50 / Agonist Activity Human M1 EC50: human mAChR M1; for Emax: relative to the maximum for acetylcholine
Excerpt: as §1, §2
Calcium flux was measured using the Functional Drug Screening System (FDSS) 6000 (Hamamatsu Corporation, Tokyo, Japan) as an increase in the fluorescent static ratio. Compounds were applied to cells (20 μL, 2×) using the automated system of the FDSS 6000 at 4 s into the 300 s protocol and the data were collected at 1 Hz. At 144 s into the 300 s protocol, 10 μL of an EC20 concentration of the muscarinic receptor agonist acetylcholine was added (5×), followed by the addition of 12 μL of an EC80 concentration of acetylcholine at the 230 s time point (5×). Agonist activity was analyzed as a concentration-dependent increase in calcium mobilization upon compound addition. Emax values for agonist activity are expressed relative to the maximum for acetylcholine. Positive allosteric modulator activity was analyzed as a concentration-dependent increase in the EC20 acetylcholine response. Antagonist activity was analyzed as a concentration-dependent decrease in the EC80 acetylcholine response. Concentration-response curves were generated using a four-parameter logistical equation in XLfit curve fitting software (IDBS, Bridgewater, NJ) for Excel (Microsoft, Redmond, WA) or Prism (GraphPad Software, Inc., San Diego, CA).

Row | SMILES | EC50 [1] | Emax [1] | EC50 [2] | Emax [2] | Agonist Activity Human M1 EC50 [2]
1 | [2H]C1([2H])c2ncccc2C(=O)N1Cc1c(F)cc(-c2ccc(OCC3CC3)c3nn(C)cc23)cc1F [Compound 138, 6-(4-(7-(cyclopropylmethoxy)-2-methyl-2H-indazol-4-yl)-2,6-difluorobenzyl)-6,7-dihydro-5H-pyrrolo[3,4-b]pyridin-5-one-7,7-d2] | 837 nM | 75% | ≥ 10000 nM | 11% | 
2 | [2H]C1([2H])c2ncccc2C(=O)N1Cc1c(F)cc(-c2ccc(F)c3nn(C)cc23)cc1C1CC1 [Compound 205, 6-(2-cyclopropyl-6-fluoro-4-(7-fluoro-2-methyl-2H-indazol-4-yl)benzyl)-6,7-dihydro-5H-pyrrolo[3,4-b]pyridin-5-one-7,7-d2] | 248 nM | 86% | 5980 nM | 54% | 
3 | [2H]C1([2H])c2ncccc2C(=O)N1Cc1ccc(-c2ccc(O[C@H]3CCOC3)c3nn(C)cc23)cc1F [Compound 144, (S)-6-(2-fluoro-4-(2-methyl-7-((tetrahydrofuran-3-yl)oxy)-2H-indazol-4-yl)benzyl)-6,7-dihydro-5H-pyrrolo[3,4-b]pyridin-5-one-7,7-d2] | 751 nM | 75% | ≥ 10000 nM | 18% | 
4 | [2H]C1([2H])c2ncccc2C(=O)N1Cc1c(F)cc(-c2ccc(OC3CN(C4CCCCC4)C3)c3nn(C)cc23)cc1F [Compound 189, 6-(4-(7-((1-cyclohexylazetidin-3-yl)oxy)-2-methyl-2H-indazol-4-yl)-2,6-difluorobenzyl)-6,7-dihydro-5H-pyrrolo[3,4-b]pyridin-5-one-7,7-d2] | 629 nM | 72% |  | 3% | Inactive
5 | [2H]C1([2H])c2ncccc2C(=O)N1Cc1c(F)cc(-c2ccc(OC(F)(F)F)c3nn(C([2H])([2H])[2H])cc23)cc1F [Compound 104, 6-(2,6-difluoro-4-(2-(methyl-d3)-7-(trifluoromethoxy)-2H-indazol-4-yl)benzyl)-6,7-dihydro-5H-pyrrolo[3,4-b]pyridin-5-one-7,7-d2] | 1170 nM | 69% |  | 2% | Inactive
6 | [2H]C1([2H])c2ncccc2C(=O)N1Cc1ccc(-c2ccc(OCC)c3nn(C)cc23)cc1F [Compound 108, 6-(4-(7-ethoxy-2-methyl-2H-indazol-4-yl)-2-fluorobenzyl)-6,7-dihydro-5H-pyrrolo[3,4-b]pyridin-5-one-7,7-d2] | 381 nM | 74% |  | 8% | Inactive
7 | [2H]C1([2H])c2ncccc2C(=O)N1Cc1ccc(-c2cccc3nn(C([2H])([2H])[2H])cc23)cc1C(C)C [Compound 234, 6-(2-isopropyl-4-(2-(methyl-d3)-2H-indazol-4-yl)benzyl)-6,7-dihydro-5H-pyrrolo[3,4-b]pyridin-5-one-7,7-d2] | ≥ 10000 nM | 42% |  | 1% | Inactive
8 | [2H]C1([2H])c2ncccc2C(=O)N1Cc1ccc(-c2cc3cn(C)nc3cc2C)cc1F [Compound 26, 6-(4-(2,6-dimethyl-2H-indazol-5-yl)-2-fluorobenzyl)-6,7-dihydro-5H-pyrrolo[3,4-b]pyridin-5-one-7,7-d2] | 7580 nM | 58% |  | 3% | Inactive
9 | [2H]C1([2H])c2ncccc2C(=O)N1Cc1c(F)cc(-c2ccc(OCc3ccccc3)c3nn(C)cc23)cc1F [Compound 129, 6-(4-(7-(benzyloxy)-2-methyl-2H-indazol-4-yl)-2,6-difluorobenzyl)-6,7-dihydro-5H-pyrrolo[3,4-b]pyridin-5-one-7,7-d2] | 1760 nM | 65% |  | 1% | Inactive
